Measured values published in ChEMBL document CHEMBL1909046, “DrugMatrix in vitro pharmacology data”.

Columns and labels:
[1] = biological target: T1, Alpha-2C adrenergic receptor (Homo sapiens, UniProt P18825); assay: DRUGMATRIX: Adrenergic Alpha-2C radioligand binding (ligand: [3H] MK-912); type: cell membranes, Sf9, Membrane; details: sf9
T1 sequence (P18825 whole entry): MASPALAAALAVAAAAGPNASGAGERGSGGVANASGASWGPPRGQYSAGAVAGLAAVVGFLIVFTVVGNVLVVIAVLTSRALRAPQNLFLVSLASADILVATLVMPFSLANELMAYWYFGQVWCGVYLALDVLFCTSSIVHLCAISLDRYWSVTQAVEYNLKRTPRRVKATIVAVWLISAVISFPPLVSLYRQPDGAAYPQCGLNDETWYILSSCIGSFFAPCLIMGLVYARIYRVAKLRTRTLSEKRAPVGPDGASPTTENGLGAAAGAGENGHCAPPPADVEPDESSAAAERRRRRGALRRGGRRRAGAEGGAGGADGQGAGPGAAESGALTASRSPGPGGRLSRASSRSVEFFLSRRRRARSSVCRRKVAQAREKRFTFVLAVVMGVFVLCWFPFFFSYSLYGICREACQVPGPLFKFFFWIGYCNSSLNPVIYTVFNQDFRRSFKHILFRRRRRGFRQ

[2] = biological target: Beta-1 adrenergic receptor (Homo sapiens, UniProt P08588); assay: DRUGMATRIX: Adrenergic beta1 radioligand binding (ligand: [125I] Cyanopindolol); type: cell membranes, CHO-K1, Membrane; details: cho-k1; Not Active = under 50% inhibition at 10 µM
[3] = biological target: Aldo-keto reductase family 1 member B1 (Rattus norvegicus, UniProt P07943); assay: biochemical; type: tissue-based, Lens of camera-type eye;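 also: inhibition of aldose reductase enzyme activity, measured with DL-glyceraldehyde as the substrate; in other assays of this panel Not Active means under 50% inhibition at 10 µM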
[4] = biological target: T2, C-X-C chemokine receptor type 1 (Homo sapiens, UniProt P25024); also: in other assays of this panel Not Active means under 50% inhibition at 10 µM
T2 sequence (P25024 whole entry): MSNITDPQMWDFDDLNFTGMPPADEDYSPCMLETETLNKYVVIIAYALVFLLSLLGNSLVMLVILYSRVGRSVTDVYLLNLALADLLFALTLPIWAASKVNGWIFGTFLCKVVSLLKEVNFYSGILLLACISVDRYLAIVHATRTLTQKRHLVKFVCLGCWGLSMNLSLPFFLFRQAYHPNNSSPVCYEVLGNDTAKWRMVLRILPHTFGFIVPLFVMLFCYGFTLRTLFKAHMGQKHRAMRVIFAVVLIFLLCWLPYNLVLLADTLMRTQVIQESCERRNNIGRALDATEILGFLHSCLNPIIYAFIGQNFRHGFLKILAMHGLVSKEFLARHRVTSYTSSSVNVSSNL

Endothelin-1 receptor = biological target: T3, Endothelin-1 receptor (Homo sapiens, UniProt P25101); type: cell membranes, Membrane; details: cho-k1; also: in other assays of this panel Not Active means under 50% inhibition at 10 µM
T3 sequence (P25101 whole entry): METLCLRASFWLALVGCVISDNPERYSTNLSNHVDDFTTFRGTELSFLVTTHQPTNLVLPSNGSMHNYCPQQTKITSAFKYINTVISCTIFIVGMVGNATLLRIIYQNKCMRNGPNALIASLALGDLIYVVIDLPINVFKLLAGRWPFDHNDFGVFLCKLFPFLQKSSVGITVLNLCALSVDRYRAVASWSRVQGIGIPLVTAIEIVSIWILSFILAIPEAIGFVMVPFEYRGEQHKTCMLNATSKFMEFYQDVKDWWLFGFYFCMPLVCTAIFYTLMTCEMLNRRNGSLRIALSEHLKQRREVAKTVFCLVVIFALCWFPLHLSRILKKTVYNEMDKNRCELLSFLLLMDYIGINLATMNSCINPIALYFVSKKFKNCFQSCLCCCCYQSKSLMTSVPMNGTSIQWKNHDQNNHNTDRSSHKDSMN

Melanocortin receptor 4 = Melanocortin receptor 4 (Homo sapiens, UniProt P32245); type: cell membranes, Membrane; details: hek293; also: in other assays of this panel Not Active means under 50% inhibition at 10 µM
Cytochrome P450 1A2 = biological target: T4, Cytochrome P450 1A2 (Homo sapiens, UniProt P05177); details: bti-tn-5b1-4; also: in other assays of this panel Not Active means under 50% inhibition at 10 µM
T4 sequence (P05177 whole entry): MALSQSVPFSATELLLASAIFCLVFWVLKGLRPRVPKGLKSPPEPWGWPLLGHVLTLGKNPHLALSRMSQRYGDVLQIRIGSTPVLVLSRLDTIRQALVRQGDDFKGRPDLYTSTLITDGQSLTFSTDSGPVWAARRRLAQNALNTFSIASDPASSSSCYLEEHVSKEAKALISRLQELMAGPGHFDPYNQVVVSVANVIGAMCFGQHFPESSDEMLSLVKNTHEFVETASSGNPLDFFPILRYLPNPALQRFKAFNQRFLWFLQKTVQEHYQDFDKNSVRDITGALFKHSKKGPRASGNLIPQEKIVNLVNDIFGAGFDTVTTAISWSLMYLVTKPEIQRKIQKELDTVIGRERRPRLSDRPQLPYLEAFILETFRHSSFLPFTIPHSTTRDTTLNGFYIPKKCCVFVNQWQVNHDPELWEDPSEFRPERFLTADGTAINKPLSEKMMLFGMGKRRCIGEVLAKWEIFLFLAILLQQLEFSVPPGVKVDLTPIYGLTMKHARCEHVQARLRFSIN

Cytochrome P450 2A6 = biological target: T5, Cytochrome P450 2A6 (Homo sapiens, UniProt P11509); details: bti-tn-5b1-4; also: in other assays of this panel Not Active means under 50% inhibition at 10 µM
T5 sequence (P11509 whole entry): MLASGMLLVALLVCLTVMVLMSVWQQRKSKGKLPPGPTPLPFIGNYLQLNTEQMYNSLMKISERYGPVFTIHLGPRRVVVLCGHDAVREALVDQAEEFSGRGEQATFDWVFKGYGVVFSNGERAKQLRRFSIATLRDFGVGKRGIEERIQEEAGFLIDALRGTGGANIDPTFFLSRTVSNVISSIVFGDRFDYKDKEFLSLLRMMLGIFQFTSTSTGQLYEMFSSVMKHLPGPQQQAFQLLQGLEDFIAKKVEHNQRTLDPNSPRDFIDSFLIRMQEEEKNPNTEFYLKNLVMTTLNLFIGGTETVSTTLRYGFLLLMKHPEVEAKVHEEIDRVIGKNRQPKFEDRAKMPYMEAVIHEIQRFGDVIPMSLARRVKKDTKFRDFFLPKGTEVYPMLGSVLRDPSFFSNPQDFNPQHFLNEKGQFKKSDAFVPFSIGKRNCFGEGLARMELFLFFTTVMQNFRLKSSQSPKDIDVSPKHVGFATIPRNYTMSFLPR

Sequence of Melanocortin receptor 4 (P32245 whole entry): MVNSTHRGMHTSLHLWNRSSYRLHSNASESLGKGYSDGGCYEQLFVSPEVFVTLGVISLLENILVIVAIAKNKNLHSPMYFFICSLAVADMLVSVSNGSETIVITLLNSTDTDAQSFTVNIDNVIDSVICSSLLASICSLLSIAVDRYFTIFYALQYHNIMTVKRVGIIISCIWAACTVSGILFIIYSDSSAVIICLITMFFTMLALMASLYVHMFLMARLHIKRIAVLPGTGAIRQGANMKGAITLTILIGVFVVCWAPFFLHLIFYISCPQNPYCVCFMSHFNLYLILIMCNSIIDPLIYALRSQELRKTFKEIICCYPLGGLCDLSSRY
Sequence of Beta-1 adrenergic receptor (P08588 whole entry): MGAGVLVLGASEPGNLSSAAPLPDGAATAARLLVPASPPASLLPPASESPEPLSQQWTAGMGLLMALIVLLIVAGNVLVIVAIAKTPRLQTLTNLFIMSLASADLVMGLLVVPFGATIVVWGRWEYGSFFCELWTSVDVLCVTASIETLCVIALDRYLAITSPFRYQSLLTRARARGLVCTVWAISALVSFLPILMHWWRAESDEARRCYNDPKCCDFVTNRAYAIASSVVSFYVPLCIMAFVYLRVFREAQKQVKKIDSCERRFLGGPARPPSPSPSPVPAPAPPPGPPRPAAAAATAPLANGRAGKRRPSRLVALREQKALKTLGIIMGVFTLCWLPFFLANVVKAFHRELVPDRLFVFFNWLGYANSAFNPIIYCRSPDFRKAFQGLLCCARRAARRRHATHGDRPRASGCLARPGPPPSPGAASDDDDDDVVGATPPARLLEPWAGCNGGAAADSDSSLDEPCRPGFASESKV

CCOC(=O)C1=C(C)NC(C)=C(C(=O)OC)C1c1cccc([N+](=O)[O-])c1 (stereo not given) [NITRENDIPINE]
Not Active: IC50 [1] | IC50 [2] | IC50 [3] | IC50 [4] | IC50 (Endothelin-1 receptor) | IC50 (Melanocortin receptor 4) | IC50 (Cytochrome P450 1A2) | Ki (Cytochrome P450 1A2) | IC50 (Cytochrome P450 2A6) | Ki (Cytochrome P450 2A6)

C#C[C@]1(OC(C)=O)CC[C@H]2[C@@H]3CCC4=CC(=O)CC[C@@H]4[C@H]3CC[C@@]21C [NORETHINDRONE ACETATE]
Not Active: IC50 [1] | IC50 [2] | IC50 [3] | IC50 [4] | IC50 (Endothelin-1 receptor) | IC50 (Melanocortin receptor 4) | IC50 (Cytochrome P450 1A2) | Ki (Cytochrome P450 1A2) | IC50 (Cytochrome P450 2A6) | Ki (Cytochrome P450 2A6)

COc1ccc2[nH]c([S+]([O-])Cc3ncc(C)c(OC)c3C)nc2c1 (stereo not given) [OMEPRAZOLE]
Not Active: IC50 [1] | IC50 [2] | IC50 [3] | IC50 [4] | IC50 (Endothelin-1 receptor) | IC50 (Melanocortin receptor 4) | IC50 (Cytochrome P450 1A2) | Ki (Cytochrome P450 1A2) | IC50 (Cytochrome P450 2A6) | Ki (Cytochrome P450 2A6)

Cc1nccn1CC1CCc2c(c3ccccc3n2C)C1=O (stereo not given) [ONDANSETRON]
Not Active: IC50 [1] | IC50 [2] | IC50 [3] | IC50 [4] | IC50 (Endothelin-1 receptor) | IC50 (Melanocortin receptor 4) | IC50 (Cytochrome P450 1A2) | Ki (Cytochrome P450 1A2) | IC50 (Cytochrome P450 2A6) | Ki (Cytochrome P450 2A6)

CCCCOc1ccc(OCCCN2CCOCC2)cc1 [PRAMOXINE]
Not Active: IC50 [1] | IC50 [2] | IC50 [3] | IC50 [4] | IC50 (Endothelin-1 receptor) | IC50 (Melanocortin receptor 4) | IC50 (Cytochrome P450 1A2) | Ki (Cytochrome P450 1A2) | IC50 (Cytochrome P450 2A6) | Ki (Cytochrome P450 2A6)

O=C(C1CCCCC1)N1CC(=O)N2CCc3ccccc3C2C1 (stereo not given) [PRAZIQUANTEL]
Not Active: IC50 [1] | IC50 [2] | IC50 [3] | IC50 [4] | IC50 (Endothelin-1 receptor) | IC50 (Melanocortin receptor 4) | IC50 (Cytochrome P450 1A2) | Ki (Cytochrome P450 1A2) | IC50 (Cytochrome P450 2A6) | Ki (Cytochrome P450 2A6)

CCN(CC)CCOC(=O)c1ccc(N)cc1 [PROCAINE]
Not Active: IC50 [1] | IC50 [2] | IC50 [3] | IC50 [4] | IC50 (Endothelin-1 receptor) | IC50 (Melanocortin receptor 4) | IC50 (Cytochrome P450 1A2) | Ki (Cytochrome P450 1A2) | IC50 (Cytochrome P450 2A6) | Ki (Cytochrome P450 2A6)

CCCN(CCC)C(=O)C(CCC(=O)O)NC(=O)c1ccccc1 (stereo not given) [PROGLUMIDE]
Not Active: IC50 [1] | IC50 [2] | IC50 [3] | IC50 [4] | IC50 (Endothelin-1 receptor) | IC50 (Melanocortin receptor 4) | IC50 (Cytochrome P450 1A2) | Ki (Cytochrome P450 1A2) | IC50 (Cytochrome P450 2A6) | Ki (Cytochrome P450 2A6)

NC(=O)c1cnccn1 [PYRAZINAMIDE]
Not Active: IC50 [1] | IC50 [2] | IC50 [3] | IC50 [4] | IC50 (Endothelin-1 receptor) | IC50 (Melanocortin receptor 4) | IC50 (Cytochrome P450 1A2) | Ki (Cytochrome P450 1A2) | IC50 (Cytochrome P450 2A6) | Ki (Cytochrome P450 2A6)

OC(CCN1CCCCC1)(c1ccccc1)C1CCCCC1 (stereo not given) [TRIHEXYPHENIDYL]
Not Active: IC50 [1] | IC50 [2] | IC50 [3] | IC50 [4] | IC50 (Endothelin-1 receptor) | IC50 (Melanocortin receptor 4) | IC50 (Cytochrome P450 1A2) | Ki (Cytochrome P450 1A2) | IC50 (Cytochrome P450 2A6) | Ki (Cytochrome P450 2A6)

Cc1cc2cc3c(C)cc(=O)oc3c(C)c2o1 [TRIOXSALEN]
Not Active: IC50 [1] | IC50 [2] | IC50 [3] | IC50 [4] | IC50 (Endothelin-1 receptor) | IC50 (Melanocortin receptor 4) | IC50 (Cytochrome P450 1A2) | Ki (Cytochrome P450 1A2) | IC50 (Cytochrome P450 2A6) | Ki (Cytochrome P450 2A6)

CCCC(CCC)C(=O)O [VALPROIC ACID]
Not Active: IC50 [1] | IC50 [2] | IC50 [3] | IC50 [4] | IC50 (Endothelin-1 receptor) | IC50 (Melanocortin receptor 4) | IC50 (Cytochrome P450 1A2) | Ki (Cytochrome P450 1A2) | IC50 (Cytochrome P450 2A6) | Ki (Cytochrome P450 2A6)
